Assay results taken from US9089565B2, “Compositions and methods for causing neurite outgrowth” (MEDICAL RESEARCH COUNCIL, priority 2009, dated 2015).

Molecular target: T1, NgR1 (Homo sapiens, UniProt Q9BZR6)
T1 construct: The cDNAs of NgR1 (NM 023004, Nt. 184-1543); expressed in transfected cells; host or cells: COS7
T1 sequence (Q9BZR6 27-447): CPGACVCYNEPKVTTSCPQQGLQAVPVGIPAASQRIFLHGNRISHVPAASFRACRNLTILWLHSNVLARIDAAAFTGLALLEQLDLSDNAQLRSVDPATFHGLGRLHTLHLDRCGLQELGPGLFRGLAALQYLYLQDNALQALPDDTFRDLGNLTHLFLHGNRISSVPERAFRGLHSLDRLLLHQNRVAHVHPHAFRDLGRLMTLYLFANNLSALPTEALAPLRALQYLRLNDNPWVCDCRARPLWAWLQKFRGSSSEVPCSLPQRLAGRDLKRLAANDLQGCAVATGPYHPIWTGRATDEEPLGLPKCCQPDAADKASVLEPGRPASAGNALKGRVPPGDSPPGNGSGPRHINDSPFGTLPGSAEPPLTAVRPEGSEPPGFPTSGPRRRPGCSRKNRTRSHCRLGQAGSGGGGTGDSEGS
Assay: Binding of Nogo-66 fragment (Nogo-GFP) to COS7 cells over-expressing NgR1
Conditions: wild type NgR1
Method: FIG. 3. CK2 phosphorylates NgR1, and inhibits binding of the myelin-associated proteins to NgR1. (A) Myc-tagged wild type, 281S/A or 281S/D mutant NgR1 were over-expressed in COS7 cells. The over-expressed cells were incubated with either the combination of ATP and CK2, or NEP1-40 for 30 min at 37° C. After washing with PBS, cells were incubated with Hisx6-tagged Nogo-GFP for 3 hours at 4° C. The cells were fixed and immunofluorescence was performed with anti-Myc and anti-GFP antibodies. (B) COS7 cells over-expressing Myc-tagged wild type NgR1 were treated as described in (A). Proteins were extracted and the Myc-tagged NgR1 was immunoprecipitated with anti-Myc antibody. Co-precipitated Hisx6-tagged Nogo-GFP was detected by anti-GFP antibody. (C) Cell surface proteins in NgR1-overexpressing COS7 cells were labelled with biotin. The biotinylated proteins were fractionated and analysed by SDS-PAGE. Biotinylated NgR1-Myc was detected with anti-Myc. antibody. (D) COS7 cells over-expressing either wild type NgR1-Myc or 281S/A mutant NgR1-Myc were incubated with ã-^32P-ATP in the presence or absence of CK2. Myc-tagged proteins were immunoprecipitated and analysed with SDS-PAGE. Proteins were blotted onto a PVDF membrane and the membrane was exposed to X-ray film to detect incorporated ^32P. After autoradiography, the membrane was used for immunoblotting with anti-Myc antibody. (E and F) COS7 cells over-expressing Myc-tagged wild type, 281S/A or 281S/D mutant NgR1, were treated as described in (A). After washing with PBS, cells were incubated with either His-tagged OMgp (E) or HA-tagged MAG (F) for 3 hours at 4° C. […]
After treatment with or without CK2, COS7 cells over-expressing wild type or mutant NgR were incubated with Hisx6 tagged Nogo-GFP (10 μg/ml), HA-MAG (50 μg/ml) or Hisx6 tagged OMgp (10 μg/ml) in PBS for 3 hours at 4° C. […] Biotinylated proteins were precipitated with streptavidin beads and were analysed by SDS-PAGE. Each sample fractionated from 5×10^6 cells was analysed by SDS-PAGE. […]

Molecule | interaction of Nogo-66 fragment with over-expressed NgR1, immunoprecipitation (ATP or CK2 alone) | binding of the Nogo-66 fragment, immunofluorescence (pre-treatment 30 min (CK2 with ATP, or NEP1-40))
Nc1ncnc2c1ncn2[C@@H]1O[C@H](COP(=O)(O)OP(=O)(O)OP(=O)(O)O)[C@@H](O)[C@H]1O [ATP] | failed to inhibit the interaction | 
NEP1-40: a competitive inhibitor of Nogo-66 binding to NgR1 (MEDLDQSPLVSSSDSPPRPQPAFKYQFVREPEDEEEEEEE; Nogo-66 residues 1-40; UniProt Q9NQC3 1-40, looked up, fragment) [reference compound] |  | inhibited binding
